Test results reported in PMC6131539, “Behavioral Effects of a Potential Novel TAAR1 Antagonist” (Frontiers in Pharmacology, 2018).

What was measured:
[1] = target: Dopamine Transporter (Homo sapiens, UniProt Q01959); test: Fluorescent dopamine uptake assay in HEK293 cells stably expressing human HA-DAT; format: cell-based; parameters: expressed in transfected cells
Protocol: Fluorescent dopamine uptake assay kits were purchased from Molecular Devices (Sunnyvale, CA; catalog #: R6138). Stable cells expressing human HA-DAT were seeded on poly-D-lysine treated, black clear-bottom 96-well plates (Corning Catalog #: 3603) at a density of 1 × 10^5 cells/well, and incubated for 24 h prior to the start of the uptake experiment. […] The plates were then incubated for 30 min at 37°C. Following incubation, 100 μL of dye solution was added and fluorescence intensity was measured for 30 min at 37°C using the SpectraMax M3 (Molecular Devices, excitation: 440 nm, emission: 520 nm). The rate of reaction (slope of the curve in the linear range) was taken as the readout for the assay.
Data analyses were performed with Graphpad Prism 5.01 (GraphPad Software, Inc., La Jolla, CA). Linear regression analysis was used to quantify fluorescent dopamine transporter uptake activity. Dose response curves were fitted with non-linear curve fitting. Two-tailed Student’s t-tests or one-way ANOVA analysis with Dunnett’s post hoc correction was used where appropriate to determine differences between data sets.
The ability of compound 22 to directly disrupt uptake activity was assessed with a fluorescent uptake assay.
Error bars represent standard error of mean at N = 3.

[2] = test system: TAAR1; parameters: method as in Lam et al., 2015b; conditions: previous study; ref Lam et al., 2015b; read-out: IC50 (TAAR1 antagonist); cited from earlier work
[3] = test system: PBR; test: PDSP binding, primary screen; parameters: species or system human; conditions: 10 μM
Protocol: (§1) This was achieved through the identification of potential pharmacological targets of compound 22 using the Psychoactive Drug Screening Program (PDSP) at University of North Carolina-Chapel-Hill. PDSP provides a platform for screening novel psychoactive compounds on human proteins expressed in the central nervous system in order to identify their biological target(s) ([Besnard et al., 2012]). Binding studies were done on 47 targets at a single dose of compound 22 (10 μM; Supplementary Table S1). This primary screen yielded a total of 5 hits for compound 22 (Table 2). These hits were the serotonin, dopamine, and norepinephrine transporters, as well as the sigma 1 and sigma 2 receptors.
(§2) Supplemental Table 1. Compound 22 binding studies from PDSP: primary screen for compound 22 and subsequent hits (50% cut-off, hits highlighted in red). The primary screen was performed by PDSP as described previously (Besnard et al., 2012).

[4] = test system: GABAA; test: PDSP binding, primary screen; parameters: species or system human; conditions: 10 μM
Protocol: as §1, §2

[5] = test system: AMPA; test: PDSP binding, primary screen; parameters: species or system human; conditions: 10 μM
Protocol: as §1, §2

[6] = test system: Sigma 2; test: PDSP binding, primary screen; parameters: species or system human; conditions: 10 μM
Protocol: as §1, §2

[7] = test system: NMDA; test: PDSP binding, primary screen; parameters: species or system human; conditions: 10 μM
Protocol: as §1, §2

[8] = test system: BZP site; test: PDSP binding, primary screen; parameters: species or system human; conditions: 10 μM
Protocol: as §1, §2

[9] = test system: WT littermates (C57BL/6J x 129S2/Sv); test: Stereotypic counts, co-injection with amphetamine, WT littermates; format: in vivo, mice; conditions: any dose (2.5, 5, 15 mg/kg) co-injected with amphetamine 2 mg/kg
Protocol: Experimentally naïve mice, of at least 12 weeks of age, were used for all behavioral experiments. The mice were randomly assigned to treatment or control groups, balanced by sex and weight. Locomotor activity was assessed using the automated locomotor analysis monitors (Omnitech Electronics, Columbus, OH, United States). The apparatus included four open field monitors. Each Open Field monitor consisted of sets of 16 light beams arrayed in the horizontal X and Y axes. The hardware detected beams broken by the animal, which allowed the software to determine the location of the mouse in the cage. Total distance covered by mice was used to characterize locomotor activity of the animals. The monitors were divided into four compartments (20 cm × 20 cm). Animals were tested individually for defined periods with 5-min intervals. The mice were first weighed and then placed into the apparatus, allowing for 30 min habituation. […] The locomotor activity was then measured for additional 1 h. […]
Supplementary file Image_2.TIF: FIGURE S2 In vivo studies with TAAR1-KO mice and compound 22 on stereotypic counts activity. […] The sum of stereotypic counts was assessed over 60 min after the injection of amphetamine and compound 22 in WT (solid bars) or TAAR1-KO mice (spotted bars). […] The sum of stereotypic counts was assessed over 60 min following the injection in WT (solid bars) or TAAR1-KO mice (dotted bars). […]

Dopamine Transporter, sequence (Q01959 with tags, fused parts or gaps H193Y/G195Y/DEL197-198/G199V/D200P/S201D/S202Y/G203A): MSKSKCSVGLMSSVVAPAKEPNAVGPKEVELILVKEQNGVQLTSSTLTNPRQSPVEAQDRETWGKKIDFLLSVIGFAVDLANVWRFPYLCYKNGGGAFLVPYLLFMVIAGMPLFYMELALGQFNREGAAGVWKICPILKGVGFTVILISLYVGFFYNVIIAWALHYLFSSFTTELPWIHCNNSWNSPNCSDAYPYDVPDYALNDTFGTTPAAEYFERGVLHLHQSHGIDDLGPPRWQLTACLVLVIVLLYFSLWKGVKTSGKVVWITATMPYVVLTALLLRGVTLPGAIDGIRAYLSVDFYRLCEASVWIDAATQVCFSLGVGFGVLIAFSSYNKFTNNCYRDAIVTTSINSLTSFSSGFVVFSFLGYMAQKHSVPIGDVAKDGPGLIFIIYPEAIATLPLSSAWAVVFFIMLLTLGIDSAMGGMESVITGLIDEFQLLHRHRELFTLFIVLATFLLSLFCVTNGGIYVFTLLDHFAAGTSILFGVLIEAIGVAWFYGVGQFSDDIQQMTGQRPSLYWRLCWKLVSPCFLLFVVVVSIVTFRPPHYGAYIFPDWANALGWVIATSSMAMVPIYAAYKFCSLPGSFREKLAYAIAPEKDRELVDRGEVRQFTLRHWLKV

## Clc1ccc(CNCc2ccc(Cn3cncn3)cc2)c(Cl)c1 [compound 22]
[1]; HEK293 cells stably expressing human HA-DAT, increasing doses
  effect on dopamine uptake activity: no effect on dopamine uptake activity
[1]; co-treatment with 1, 10 and 100 μM compound 22
  effect on cocaine dose response inhibition of dopamine uptake: did not alter
[2]
  IC50: > 100 µM
[3]
  % Inhibition: 23.1%
[4]
  % Inhibition: 5.2%
[5]
  % Inhibition: 13.4%
[6]
  % Inhibition: 78.4%
[7]
  % Inhibition: -1.7%
[8]
  % Inhibition: 1.1%
[9]
  stereotypic counts: did not have statistically enhanced stereotypic counts
